Source: US20060134073A1, “Compositions and methods for ex vivo preservation of blood vessels for vascular grafts using analogues of cAMP and cGMP” (priority 2004, published 2006)
Where “and” joins values, the source holds several entries; their conditions need not be identical. Identical values can stand only once.

Tests used:
[1] = test system: macrophages on the intima of porcine venous graft; assay: porcine vein graft model: macrophages on/in intima (anti-macrophage immunoperoxidase); format: in vivo; settings: for A.Average Number of Macrophages on/in Intima* (400X objective) MAC-1 Staining, Left IJV Experimental: graft incubated 60 minutes in test solution before implantation, one animal per line
Experimental: (§1) 6.4 The following experiments were performed to determine the ability of various compounds to preserve vein grafts before implantation in a porcine vein graft model. Briefly, the vein grafts were excised from the pig, incubated in solutions containing the various test compounds, implanted back into the pig and excised after a set period of days. The excised veins were then examined for a variety of factors to determine the protective effect of the various compounds.
Anti-macrophage antibody: An indirect immunoperoxidase procedure was performed. Slides were treated with Declere antigen retrieval solution for 15 minutes followed by one rinse in phosphate-buffered saline (PBS) ([0.15M NaCl, pH 7.2]+0.05% Tween 20). Endogenous peroxidase activity was quenched by incubation with the peroxidase solution supplied in the Dako EnVision+ kit followed by two rinses in PBS (0.15M NaCl, pH 7.2)+0.05% Tween 20. The slides were then incubated for 20 minutes in a nonspecific protein block solution comprising 1% BSA and 1.5% normal goat serum in PBS (0.15M NaCl, pH 7.2)+0.05% Tween 20 followed by incubation with primary antibody for 1 hour. After two PBS (0.15M NaCl, pH 7.2)+0.05% Tween 20 rinses, the slides were treated with the Dako EnVision+ peroxidase labeled polymer for 30 minutes. The slides were rinsed twice with PBS (0.15M NaCl, pH 7.2)+0.05% Tween 20 and treated with Dako substrate-chromogen solution for 8 minutes. The slides were then rinsed in tap water, counterstained with hematoxylin, and blued with lithium chloride. Finally, the slides were dehydrated in increasing concentrations of alcohol, cleared with xylene, and mounted for interpretation. PBS (0.15M NaCl, pH 7.2)+0.05% Tween 20+1% BSA served as the diluent for all antibodies. All rinses were performed with PBS (0.15M NaCl, pH 7.2) supplemented with 0.05% Tween 20.
For the anti-macrophage antibody, all slides were judged for adequacy of tissue elements and staining and read blind by the Study Pathologist to quantify the number of macrophages on the intima of the porcine venous graft tissues. The quantification was performed by counting at 400× the number of positively stained macrophages in and on the intima of each section of venous graft tissue in 10 fields and then taking the average number of macrophages per field for each section. A mean score among the four venous graft sections for each test group was calculated.
(§2) This study tested the ability of a variety of preservation solutions to retard chronic intimal hyperplasia and protect vein grafts from restenosis and obstruction in a porcine interpositional graft model. The markers of inflammation of interest in this study were CD31 (PECAM-1), CD54 (ICAM-1), and macrophages (L1 or Calprotectin) in formalin-fixed, paraffin-embedded porcine venous graft tissues. Specifically, a porcine internal jugular vein was end to side anastamosed to the ipsilateral carotid artery, following 60 minutes of incubation in heparinized saline (negative control), Phorbol Myristate Acetate (PMA) as positive control, or experimental solutions. In addition to the detection of macrophages with either L1 or Calprotectin antibodies, anti-CD31 was used to detect endothelial cells, and Movat's Trichrome stain, together with biomorphometry was used to measure the percent of intimal expansion. For detection of CD31, an anti-CD31 antibody was applied to formalin-fixed, paraffin-embedded porcine spleen at one dilution (1:50). This dilution of anti-CD-31 antibody had strong to intense staining of splenic endothelium (positive control material). In order to detect CD54, mouse antihuman CD54 antibody was applied at one concentration (50 μg/mL) to ICAM-1/CD54 ultraviolet light (UV) activated resin spot slides. There was strong to intense staining of the ICAM-1/CD54 UV activated resin spot slides with 50 μg/mL of anti-CD54 antibody. […]

[2] = test system: endothelium (CD31) of porcine venous graft; assay: porcine vein graft model: endothelialization score (CD31 staining); format: in vivo; settings: for B.Endothelialization Score CD31 Staining, Left IJV Experimental: mean score on 0-5 scale, graft incubated 60 minutes in test solution before implantation, one animal per line; for endothelialization of treated venous graft compared to control contralateral venous graft: in words, based on slightly higher endothelialization scores
Experimental: as §1
Anti-CD31 antibody: An indirect immunoperoxidase procedure was performed. Slides were treated with Declere antigen retrieval solution for 15 minutes followed by two rinses in phosphate-buffered saline (PBS [0.15M NaCl, pH 7.2]+0.05% Tween 20). The slides were then treated with 3% hydrogen peroxide to block endogenous peroxidase activity. After two PBS (0.15M NaCl, pH 7.2)+0.05% Tween 20 rinses, the slides were incubated for 20 minutes in a nonspecific protein block comprising 1% BSA, 1.5% normal horse serum, and 5% milk in PBS (0.15M NaCl, pH 7.2)+0.05% Tween 20. The slides were then incubated with primary antibody for 2 hours at 37° C. followed by two PBS (0.15M NaCl, pH 7.2)+0.05% Tween 20 rinses. The biotinylated secondary antibody was then added and incubated for 30 minutes. After two rinses in PBS (0.15M NaCl, pH 7.2)+0.05% Tween 20, the slides were treated with ABC reagent for 30 minutes followed by two PBS (0.15M NaCl, pH 7.2)+0.05% Tween 20 rinses. The slides were incubated with stable DAB substrate for 6 minutes, rinsed in tap water, counterstained with hematoxylin, and blued with lithium chloride. Finally, all slides were dehydrated in increasing concentrations of alcohol, cleared with xylene, and mounted for interpretation. PBS (0.15M NaCl, pH 7.2)+0.05% Tween 20+1% BSA served as the diluent for the primary antibody and ABC reagent. The diluent for the secondary antibody also contained 1% milk. All rinses were performed with PBS (0.15M NaCl, pH 7.2) supplemented with 0.05% Tween 20.
For the anti-CD31 antibody, all slides were judged for adequacy of tissue elements and staining and read blind by the Study Pathologist to quantify the degree of endothelialization of each section of venous graft tissue using the following scale: 0=no endothelialization, 1=less than 25% endothelialization, 2=25-50% endothelialization, 3=51-75% endothelialization, 4=greater than 75% endothelialization, 5=complete endothelialization. A mean score among the four venous graft sections for each test group was calculated.
as §2

[3] = test system: porcine venous graft (intimal hyperplasia); assay: porcine vein graft model: % neointimal expansion (histomorphometry, Movat's stain); format: in vivo; settings: for C.% Neointimal Expansion Movat's Trichrome [100 * (neointima area/neointima area + lumen area], Left IJV Experimental: graft incubated 60 minutes in test solution before implantation, one animal per line; for % neointimal expansion (% NE) compared to contralateral venous graft and heparinized saline negative control: in words
Experimental: as §1
All slides were also stained with hematoxylin and eosin (H&E) and Movat's Pentachrome stains in preparation for histomorphometry. Calculations based on morphometry measurements were made using Microsoft Excel® software. For histomorphometry, neointimal area, luminal area, and percentage of neointimal expansion (100×[neointimal area/neointimal area+luminal area) was calculated for each venous graft section and the mean for each vessel were calculated.
This study tested the ability of a variety of preservation solutions to retard chronic intimal hyperplasia and protect vein grafts from restenosis and obstruction in a porcine interpositional graft model. The markers of inflammation of interest in this study were CD31 (PECAM-1), CD54 (ICAM-1), and macrophages (L1 or Calprotectin) in formalin-fixed, paraffin-embedded porcine venous graft tissues. Specifically, a porcine internal jugular vein was end to side anastamosed to the ipsilateral carotid artery, following 60 minutes of incubation in heparinized saline (negative control), Phorbol Myristate Acetate (PMA) as positive control, or experimental solutions. In addition to the detection of macrophages with either L1 or Calprotectin antibodies, anti-CD31 was used to detect endothelial cells, and Movat's Trichrome stain, together with biomorphometry was used to measure the percent of intimal expansion. For detection of CD31, an anti-CD31 antibody was applied to formalin-fixed, paraffin-embedded porcine spleen at one dilution (1:50). This dilution of anti-CD-31 antibody had strong to intense staining of splenic endothelium (positive control material). In order to detect CD54, mouse antihuman CD54 antibody was applied at one concentration (50 μg/mL) to ICAM-1/CD54 ultraviolet light (UV) activated resin spot slides. There was strong to intense staining of the ICAM-1/CD54 UV activated resin spot slides with 50 μg/mL of anti-CD54 antibody. The detection of macrophages was performed by the application of one concentration (2 μg/mL) of mouse anti-human macrophages antibody to formalin-fixed, paraffin embedded porcine spleen. There was moderate staining of macrophages with 2 μg/mL of anti-macrophages antibody. […] All slides were also stained with hematoxylin and eosin (H&E) and Movat's Pentachrome stains in preparation for histomorphometry.

porcine venous graft = assay: porcine vein graft model: graft occlusion at explant; format: in vivo; design: key: SO = substantially occluded; settings: graft incubated 60 minutes in test solution before implantation; one animal per line
Experimental: as §1
This study tested the ability of a variety of preservation solutions to retard chronic intimal hyperplasia and protect vein grafts from restenosis and obstruction in a porcine interpositional graft model. The markers of inflammation of interest in this study were CD31 (PECAM-1), CD54 (ICAM-1), and macrophages (L1 or Calprotectin) in formalin-fixed, paraffin-embedded porcine venous graft tissues. Specifically, a porcine internal jugular vein was end to side anastamosed to the ipsilateral carotid artery, following 60 minutes of incubation in heparinized saline (negative control), Phorbol Myristate Acetate (PMA) as positive control, or experimental solutions. In addition to the detection of macrophages with either L1 or Calprotectin antibodies, anti-CD31 was used to detect endothelial cells, and Movat's Trichrome stain, together with biomorphometry was used to measure the percent of intimal expansion. […]

[4] = test system: jugular vein patch graft (neointimal hyperplasia); assay: murine autologous arterialized vein patch model: neointimal expansion of vein grafts; format: in vivo, C57BL/6J mice; settings: vein patch preserved 2 hours at 25° C. in heparinized saline with additive (db-cAMP 2 mmol/L; 8-Br-cAMP 0.1 mmol/L; Rp-cAMPS 0.25 mmol/L), harvested postoperative day 21; mean ±SEM
[5] = test system: MAC-1+ leukocytes adhering to the endothelium of the vein patch; assay: en face immunofluorescence: MAC-1+ leukocyte adhesion to vein patch; format: in vivo, C57BL/6J mice; settings: 2 hours of preservation with db-cAMP vs without additive; 24 hours after operation; P<0.05
endothelial cells = settings: stated as known; cited from earlier work

Row | Compound | A.Average Number of Macrophages on/in Intima* (400X objective) MAC-1 Staining, Left IJV Experimental [1] | B.Endothelialization Score CD31 Staining, Left IJV Experimental [2] | C.% Neointimal Expansion Movat's Trichrome [100 * (neointima area/neointima area + lumen area], Left IJV Experimental [3] | endothelialization of treated venous graft compared to control contralateral venous graft [2] | graft status printed in place of a value (Left IJV Experimental) (porcine venous graft) | neointimal expansion [4] | MAC-1+ cells adhered to the surface of vein patch [5] | macrophage scores of treated venous graft compared to contralateral venous graft ([1]; in words) | % neointimal expansion (% NE) compared to contralateral venous graft and heparinized saline negative control [3] | db cAMP concentrations that become toxic to endothelial cells (endothelial cells)
1 | O=C1CCC(N2C(=O)c3ccccc3C2=O)C(=O)N1 (centres unmarked) [Thalidomide] | 1.15 and 1.45 | 4.75 and 4.5 | 78.2% and 80.0% | – | – | – | – | – | – | –
2 | Cc1[nH]c(=O)c(C#N)cc1-c1ccncc1 [Milrinone (PDSIII), Milrinone] | 0 | 5 | 70.4% | better endothelialization | SO | – | – | – | – | –
3 | Nc1ncnc2c1nc(Br)n2[C@@H]1O[C@@H]2COP(=O)(O)O[C@H]2[C@H]1O [8-Br-cAMP, 8-bromo-adenosine 3′,5′-cyclic monophosphate] | – | – | – | – | – | 44.3%±5.0% | – | – | – | –
4 | CCCC(=O)Nc1ncnc2c1ncn2[C@@H]1O[C@@H]2COP(=O)(O)O[C@H]2[C@H]1OC(=O)CCC [db-cAMP, N^6,2′-O-dibutyryl adenosine 3′,5′-cyclic monophosphate] | 0.025 | 5 | 55.6% | better endothelialization | – | 51.0%±4.7% | markedly decreased | decreases | large and significant increase | higher than 4 mM
5 | Lipopolysaccaride | 1.575 | 4.75 | 77.7% | – | – | – | – | – | – | –
6 | Enbrel | – | – | – | – | SO | – | – | – | – | –
7 | CCCCCCCCCCCCCC(=O)O[C@@H]1[C@@H](C)[C@@]2(O)[C@@H](C=C(CO)C[C@]3(O)C(=O)C(C)=C[C@@H]23)[C@@H]2C(C)(C)[C@]12OC(C)=O [PMA, Phorbol Myristate Acetate] | 0 and 3.55 | 4.5 and 5 | 78.9% and 78.8% | – | – | – | – | – | slight increase | –
